Patent publication US6872720B2 (dated 2005)

Compound | melting point [°C]
Cc1nnc(-c2ccc(F)cc2)n2nc(OCc3ncnn3C)c(-c3ccsc3)c12 | 171 to 177
Cc1nnc(-c2ccccc2F)n2nc(OCc3ncnn3C)c(C3CCCC3)c12 | 123
CCn1ncnc1COc1nn2c(-c3ccccc3)nnc(C)c2c1C1CCCC1 | 112
Cc1nnc(-c2ccccc2)n2nc(OCc3ncnn3C)c(C3CCCC3)c12 | 159
Cc1nnc(-c2ccccc2F)n2nc(OCc3ncnn3C)c(-c3ccoc3)c12 | 150 to 153
Cc1nnc(-c2ccccc2F)n2nc(OCc3ncn(C)n3)c(-c3ccsc3)c12 | 214 to 217
Cc1nnc(-c2ccccc2F)n2nc(OCc3ncnn3C)c(-c3ccsc3)c12 | 124 to 129

Results, then the compound that gave them:

melting point [°C] | Compound
105 | CCn1ncnc1COc1nn2c(-c3ccccc3F)nnc(C)c2c1C1CCCC1
144 to 146 | Cc1nnc(-c2ccc(F)cc2F)n2nc(OCc3ncnn3C)c(-c3ccsc3)c12
109 | CCn1ncnc1COc1nn2c(-c3cc(F)ccc3F)nnc(C)c2c1C(C)(C)C
